Laboratory results: US8846669B2, “Oxazolidinone derivative and medical composition containing same” (Legochem Biosciences, Inc., priority 2011, dated 2014)
Values after ≈ are worked out from the molar mass of the structure shown. Where two headings read alike, the source gives them in different places.

Assays:
Assay in all cases: In vitro antibacterial activity, broth microdilution MIC90
Type in all cases: cell-based
[1] = tested on: Vancomycin Resistant Enterococcus faecium
Procedure: (§1) MIC90 was measured by broth microdilution method based on CLSI standards [reference: Clinical and Laboratory Standards Institute Document. (2000) Methods for Dilution Antimicrobial Susceptibility Test for Bacteria that Grow Aerobically-Fifth Edition: M7-A5. CLSI, Villanova, Pa.].
(§2) Activities of 12 strains including Staphylococcus aureus, Methicillin Resistant Staphylococcus aureus, Staphylococcus epidermidis, Methicillin Resistant Staphylococcus epidermidis, Enterococcus faecalis, Vancomycin Resistant Enterococcus faecalis, Linezolid and Vancomycin Resistant Enterococcus faecalis, Enterococcus faecium, Vancomycin Resistant Enterococcus faecium, Linezolid and Vancomycin Resistant Enterococcus faecium, and Moraxella catarrhalis, were measured, and results are shown in Table 1 below.
(§3) The final concentration of test material in the antibacterial test was from 0.063 μg/mL (minimum) to 128 μg/mL (maximum), and the final concentration of DMSO used as an excipient was 2.5% (V/V). Linezolid represented by Formula B below (manufactured by Pfizer) was used as a control and bacterial activity thereof was compared with those of the test materials.

Moraxella catarrhalis = tested on: Moraxella catarrhalis
Procedure: as §1, §2, §3

Enterococcus faecium = tested on: Enterococcus faecium
Procedure: as §1, §2, §3

Enterococcus faecalis = tested on: Enterococcus faecalis
Procedure: as §1, §2, §3

[2] = tested on: Staphylococcus epidermidis
Procedure: as §1, §2, §3

[3] = tested on: Linezolid and Vancomycin Resistant Enterococcus faecium (strain 10)
Procedure: as §1, §2, §3

[4] = tested on: Methicillin Resistant Staphylococcus aureus
Procedure: as §1, §2, §3

Staphylococcus aureus = tested on: Staphylococcus aureus
Procedure: as §1, §2, §3

[5] = tested on: Vancomycin Resistant Enterococcus faecalis
Procedure: as §1, §2, §3

[6] = tested on: Linezolid and Vancomycin Resistant Enterococcus faecalis
Procedure: as §1, §2, §3

[7] = tested on: Linezolid and Vancomycin Resistant Enterococcus faecium (strain 11)
Procedure: as §1, §2, §3

[8] = tested on: Methicillin Resistant Staphylococcus epidermidis
Procedure: as §1, §2, §3

[9] = Enterococcus faecium, strain 9, E. faecium VanA, read-out: MIC90
[10] = Moraxella catarrhalis, strain 12, M. catarrhalis, read-out: MIC90
[11] = Enterococcus faecium, strain 8, E. faecium, read-out: MIC90
[12] = Enterococcus faecalis, strain 5, E. faecalis, read-out: MIC90
[13] = Staphylococcus epidermidis, strain 3, S. epidermidis, read-out: MIC90
[14] = Enterococcus faecium, strain 10, E. faecium VanA LR, read-out: MIC90
[15] = Staphylococcus aureus, strain 2, S. aureus MR, read-out: MIC90
[16] = Staphylococcus aureus, strain 1, S. aureus, read-out: MIC90
[17] = Enterococcus faecalis, strain 6, E. faecalis VanA, read-out: MIC90
[18] = Enterococcus faecalis, strain 7, E. faecalis VanA LR, read-out: MIC90
[19] = Enterococcus faecium, strain 11, E. faecium VanA LR, read-out: MIC90
[20] = Staphylococcus epidermidis, strain 4, S. epidermidis MR, read-out: MIC90

Row | Compound | MIC90 ([1]; strain 9, E. faecium VanA) | MIC90 (Moraxella catarrhalis; strain 12, M. catarrhalis) | MIC90 (Enterococcus faecium; strain 8, E. faecium) | MIC90 (Enterococcus faecalis; strain 5, E. faecalis) | MIC90 ([2]; strain 3, S. epidermidis) | MIC90 ([3]; strain 10, E. faecium VanA LR) | MIC90 ([4]; strain 2, S. aureus MR) | MIC90 (Staphylococcus aureus; strain 1, S. aureus) | MIC90 ([5]; strain 6, E. faecalis VanA) | MIC90 ([6]; strain 7, E. faecalis VanA LR) | MIC90 ([7]; strain 11, E. faecium VanA LR) | MIC90 ([8]; strain 4, S. epidermidis MR) | MIC90 [1, 9] | MIC90 (Moraxella catarrhalis; [10]) | MIC90 (Enterococcus faecium; [11]) | MIC90 (Enterococcus faecalis; [12]) | MIC90 [2, 13] | MIC90 [3, 14] | MIC90 [4, 15] | MIC90 (Staphylococcus aureus; [16]) | other results
1 | NCC(=O)N1CCN(c2ccc(-c3ccc(N4C[C@H](CNc5ccon5)OC4=O)cc3F)cn2)C=N1 [Compound 42] | 0.5 µg/mL (≈ 1.01 µM) | 2 µg/mL (≈ 4.04 µM) | 0.125 µg/mL (≈ 0.253 µM) | 0.5 µg/mL (≈ 1.01 µM) | 0.5 µg/mL (≈ 1.01 µM) | 4 µg/mL (≈ 8.09 µM) | 0.5 µg/mL (≈ 1.01 µM) | 0.25 µg/mL (≈ 0.506 µM) | 1 µg/mL (≈ 2.02 µM) | 2 µg/mL (≈ 4.04 µM) | 4 µg/mL (≈ 8.09 µM) | 2 µg/mL (≈ 4.04 µM) |  |  |  |  |  |  |  |  | 
2 | O=C1O[C@@H](COc2ccon2)CN1c1ccc(-c2ccc(C3=NOCCN3)nc2)c(F)c1 [Compound 68] | 1 µg/mL (≈ 2.28 µM) | >128 µg/mL | 0.25 µg/mL (≈ 0.569 µM) | 1 µg/mL (≈ 2.28 µM) | 1 µg/mL (≈ 2.28 µM) | >128 µg/mL | 1 µg/mL (≈ 2.28 µM) | 0.5 µg/mL (≈ 1.14 µM) | 2 µg/mL (≈ 4.55 µM) | >128 µg/mL | >128 µg/mL | 2 µg/mL (≈ 4.55 µM) |  |  |  |  |  |  |  |  | 
3 | O=C(O)CN1CCN(c2ccc(-c3ccc(N4C[C@H](COc5ccon5)OC4=O)cc3F)cn2)C=N1 [Compound 51] | 4 µg/mL (≈ 8.06 µM) | >128 µg/mL | 1 µg/mL (≈ 2.01 µM) | 4 µg/mL (≈ 8.06 µM) | 1 µg/mL (≈ 2.01 µM) | 32 µg/mL (≈ 64.5 µM) | 1 µg/mL (≈ 2.01 µM) | 0.5 µg/mL (≈ 1.01 µM) | 4 µg/mL (≈ 8.06 µM) | 16 µg/mL (≈ 32.2 µM) | 32 µg/mL (≈ 64.5 µM) | 4 µg/mL (≈ 8.06 µM) |  |  |  |  |  |  |  |  | 
4 | CC(=O)NC[C@H]1CN(c2ccc(-c3ccc(N4C=NN(C(=O)C5COC(C)(C)O5)CC4)nc3)c(F)c2)C(=O)O1 (stereo partly drawn) [Compound 20] |  |  |  |  |  |  |  |  |  |  |  |  |  |  |  |  |  |  |  |  | MIC90 ([1]; Enterococcus faecium): 2 µg/mL (≈ 3.7 µM); MIC90 (Moraxella catarrhalis; Moraxella catarrhalis): 8 µg/mL (≈ 14.8 µM); MIC90 (Enterococcus faecium; Enterococcus faecium): 2 µg/mL (≈ 3.7 µM); MIC90 (Enterococcus faecalis; Enterococcus faecalis): 2 µg/mL (≈ 3.7 µM); MIC90 ([2]; Staphylococcus epidermidis): 4 µg/mL (≈ 7.4 µM); MIC90 ([3]; Enterococcus faecium): 8 µg/mL (≈ 14.8 µM); MIC90 ([4]; Staphylococcus aureus): 8 µg/mL (≈ 14.8 µM); MIC90 (Staphylococcus aureus; Staphylococcus aureus): 2 µg/mL (≈ 3.7 µM); MIC90 ([5]; Enterococcus faecalis): 2 µg/mL (≈ 3.7 µM); MIC90 ([6]; Enterococcus faecalis): 8 µg/mL (≈ 14.8 µM); MIC90 ([7]; Enterococcus faecium): 8 µg/mL (≈ 14.8 µM); MIC90 ([8]; Staphylococcus epidermidis): 4 µg/mL (≈ 7.4 µM)
5 | CC(=O)NC[C@H]1CN(c2ccc(-c3ccc(N4CCN(C=O)C=N4)nc3)c(F)c2)C(=O)O1 [Compound 52] |  |  |  |  |  |  |  |  |  |  |  |  | 0.5 µg/mL (≈ 1.14 µM) | 4 µg/mL (≈ 9.08 µM) | 0.5 µg/mL (≈ 1.14 µM) | 0.5 µg/mL (≈ 1.14 µM) | 0.25 µg/mL (≈ 0.568 µM) | 1 µg/mL (≈ 2.27 µM) | 0.5 µg/mL (≈ 1.14 µM) | 0.25 µg/mL (≈ 0.568 µM) | MIC90 [5, 17]: 0.5 µg/mL (≈ 1.14 µM); MIC90 [6, 18]: 1 µg/mL (≈ 2.27 µM); MIC90 [7, 19]: 1 µg/mL (≈ 2.27 µM); MIC90 [8, 20]: 0.5 µg/mL (≈ 1.14 µM)
6 | CN1CCN(c2ccc(-c3ccc(N4C[C@H](Cn5ccnn5)OC4=O)cc3F)cn2)C=N1 [Compound 31] |  |  |  |  |  |  |  |  |  |  |  |  |  |  |  |  |  |  |  |  | MIC90 ([1]; Enterococcus faecium): 0.25 µg/mL (≈ 0.573 µM); MIC90 (Moraxella catarrhalis; Moraxella catarrhalis): 2 µg/mL (≈ 4.58 µM); MIC90 (Enterococcus faecium; Enterococcus faecium): 0.25 µg/mL (≈ 0.573 µM); MIC90 (Enterococcus faecalis; Enterococcus faecalis): 0.5 µg/mL (≈ 1.15 µM); MIC90 ([2]; Staphylococcus epidermidis): 0.25 µg/mL (≈ 0.573 µM); MIC90 ([3]; Enterococcus faecium): 1 µg/mL (≈ 2.29 µM); MIC90 ([4]; Staphylococcus aureus): 1 µg/mL (≈ 2.29 µM); MIC90 (Staphylococcus aureus; Staphylococcus aureus): 0.25 µg/mL (≈ 0.573 µM); MIC90 ([5]; Enterococcus faecalis): 0.5 µg/mL (≈ 1.15 µM); MIC90 ([6]; Enterococcus faecalis): 2 µg/mL (≈ 4.58 µM); MIC90 ([7]; Enterococcus faecium): 2 µg/mL (≈ 4.58 µM); MIC90 ([8]; Staphylococcus epidermidis): 1 µg/mL (≈ 2.29 µM)
7 | COC(=O)NC[C@H]1CN(c2ccc(-c3ccc(N4CCON=C4C)nc3)c(F)c2)C(=O)O1 [Compound 63] |  |  |  |  |  |  |  |  |  |  |  |  | 2 µg/mL (≈ 4.51 µM) | 8 µg/mL (≈ 18 µM) | 1 µg/mL (≈ 2.26 µM) | 2 µg/mL (≈ 4.51 µM) | 1 µg/mL (≈ 2.26 µM) | 16 µg/mL (≈ 36.1 µM) | 2 µg/mL (≈ 4.51 µM) | 2 µg/mL (≈ 4.51 µM) | MIC90 [5, 17]: 2 µg/mL (≈ 4.51 µM); MIC90 [6, 18]: 16 µg/mL (≈ 36.1 µM); MIC90 [7, 19]: 16 µg/mL (≈ 36.1 µM); MIC90 [8, 20]: 4 µg/mL (≈ 9.02 µM)
8 | CC(=O)NC[C@H]1CN(c2ccc(-c3ccc(C4=NOCCN4C)nc3)c(F)c2)C(=O)O1 [Compound 69] |  |  |  |  |  |  |  |  |  |  |  |  | 1 µg/mL (≈ 2.34 µM) | 8 µg/mL (≈ 18.7 µM) | 1 µg/mL (≈ 2.34 µM) | 1 µg/mL (≈ 2.34 µM) | 0.5 µg/mL (≈ 1.17 µM) | 4 µg/mL (≈ 9.36 µM) | 2 µg/mL (≈ 4.68 µM) | 0.5 µg/mL (≈ 1.17 µM) | MIC90 [5, 17]: 1 µg/mL (≈ 2.34 µM); MIC90 [6, 18]: 2 µg/mL (≈ 4.68 µM); MIC90 [7, 19]: 4 µg/mL (≈ 9.36 µM); MIC90 [8, 20]: 2 µg/mL (≈ 4.68 µM)
